In patent publication US20040030106A1, “Novel compounds and process” (priority 2000, published 2004):
Where “and” joins values, the source holds several entries; their conditions need not be identical. Equal entries are not always repeated. Bridge positions count the residues as written; N and C are the ends. Ends that are not written are not given here.

Columns and labels:
[1] = tested on: P14 peptides; test: IgG anti-peptide ELISA after immunisation of mice with P14 peptide-BSA conjugates; assay type: in vivo; conditions: 25 μg conjugate IM with AS2 adjuvant on days 0, 14, 28, day 14 post III; for IgG anti-peptide responses (midpoint titre), individual mice: one value per mouse
Experimental: To evaluate the immunogenicity of the conjugates produced in Example 1, 10 mice per group were immunised intramuscularly (IM) on days 0, 14 and 28 with 25 μg of conjugate mixed with AS2 adjuvant (oil/water emulsion, 3D-MPL, QS21). The serologic response for the P14 peptides was analysed by ELISA on days 28 and 42 (14 post III).

[2] = tested on: P15 peptides; test: Anti-peptide antibody response after immunisation of mice with cyclic P15-BSA conjugates; assay type: in vivo; conditions: 10 mice per group, 25 μg conjugate IM with AS2 adjuvant on days 0, 14, 28; 14 days post III
Experimental: (§1) The P15 peptide conjugates produced in Example 1 were also used to immunise 10 mice per group,intramuscularly (IM) on days 0, 14 and 28 with 25 μg of conjugate mixed with AS2 adjuvant (oil/water emulsion, 3D-MPL, QS21). Very homogenous responses were obtained with all cyclic P15 peptides.

[3] = tested on: IgE; test: Anti-IgE antibody response after immunisation of mice with cyclic P15-BSA conjugates, by comparison with mAb 11; assay type: in vivo; conditions: mAb11 equivalents, 25 μg conjugate IM with AS2 adjuvant on days 0, 14, 28, 14 days post III
Experimental: as §1

[4] = tested on: human basophils; test: Human basophil blocking assay: inhibition of Lol p I triggered histamine release; assay type: cell-based; conditions: human basophils from allergic donors, triggered with allergen (Lol p I)
Source text: The degree of inhibition of histamine release can be calculated using the formula:
% inhibition=1−(histamine release from test sample treated cells*)×100(histamine release from antigen stimulated cells*)
Values corrected for spontaneous release.

[5] = tested on: human basophils
Experimental: Blood was collected by venepuncture from 4 allergic donors into tubes containing 0.1 volumes 2.7% EDTA, pH 7.0. It is then diluted 1/2 with an equal volume of HBH medium containing 0.1% human serum albumin (HBH/HSA). The resulting cell suspension was layered over 50% volume Ficoll-Paque and centrifuged at 400 g for 30 minutes at room temperature. The peripheral blood mononuclear cell (PBMC) layer at the interface is collected and the pellet is discarded. The cells are washed once in HBH/HSA, counted, and re-suspended in HBH/HSA at a cell density of 2.0×10^6 per ml. 100 μl cell suspension are added to wells of a V-bottom 96-well plate containing 100 μl diluted test sample or vaccine induced antibody. Each test sample is tested at a range of dilutions with 6 wells for each dilution. Well contents are mixed briefly using a plate shaker, before incubation at 37° C. for 30 minutes with shaking at 120 rpm.
For each serum dilution 3 wells are triggered by addition of 10 μl Lol p I extract (final dilution 1/10000) and 3 wells have 10 μl HBH/HSA added for assessment of anaphylactogenicity. Well contents are again mixed briefly using a plate shaker, before incubation at 37° C. for a further 30 minutes with shaking at 120 rpm. Incubations are terminated by centrifugation at 500 g for 5 min. Supernatants are removed for histamine assay using a commercially available histamine EIA measuring kit (Immunotech). Control wells containing cells without test sample are routinely included to determine spontaneous and triggered release. Wells containing cells ±0.05% Igepal detergent are also included to determine total cell histarnine.
Histamine release due to test samples=% histamine release from test sample treated cells−% spontaneous histamine release.

Row | Substance | IgG anti-peptide responses (midpoint titre), Average [1] | IgG anti-peptide responses (midpoint titre), geomean [1] | IgG anti-peptide responses (midpoint titre), individual mice [1] | anti-peptide (midpoint titre), average [2] | anti-peptide (midpoint titre), geomean [2] | anti-IgE (μg/ml or mAB11 equivalent), average [3] [µg/mL] | anti-IgE (μg/ml or mAB11 equivalent), geomean [3] [µg/mL] | histamine release blocking activity of the induced antiserum [4] | anaphylactogenicity of the induced antiserum [5]
1 | ACPEWPGSRDRCTLAG-NH2 (disulfide 2-12 (inferred)) [P14e] | 3200 | 3051 | 3151 and 2345 and 3224 and 3051 and 2873 and 4647 and 1461 and 4227 and 3821 | – | – | – | – | – | –
2 | Ac-CLEDGQVMDCGSK-NH2 (disulfide 1-10 (inferred)) [P15b, 325 conjugated to BSA] | – | – | – | 11169 | 8385 | 70 | 35 | – | –
3 | Ac-CLEDGQVMDVDLCGGSSGGK-NH2 (disulfide 1-13 (inferred)) [P15e] | – | – | – | 57432 | 55207 | 129 | 113 | inhibited histamine release | without the antiserum being anaphylactogenic
4 | Ac-CLEDGQVMDVDLCGSK-NH2 (disulfide 1-13 (inferred)) [P15c] | – | – | – | 66452 | 65685 | 200 | 189 | inhibited histamine release | without the antiserum being anaphylactogenic
5 | Ac-CLEDGQVMDVDLCPREAAEGDK-NH2 [P15d] | – | – | – | 35118 | 32801 | 174 | 111 | inhibited histamine release | without the antiserum being anaphylactogenic
6 | Ac-CPEWPGSRDRCGSK-NH2 (disulfide 1-11 (inferred)) [P14f] | 77521 | 73541 | 67086 and 101502 and 36031 and 74838 and 56496 and 51304 and 92885 and 92868 and 113041 and 89155 | – | – | – | – | – | –
7 | Ac-CWPGSRDRRCGSK-NH2 (disulfide 1-10 (inferred)) [P14I] | 48146 | 45336 | 85882 and 28989 and 39268 and 39460 and 57276 and 50834 and 54664 and 62263 and 36621 and 26202 | – | – | – | – | – | –
